The results in this text go back to patent publication US20210236840A1, “COMBINED SONODYNAMIC AND PHOTODYNAMIC THERAPY TO TREAT DEEP SEATED CANCER AND OTHER HYPERPOLIFERATIVE DISEASE AND ULTRASOUND AND LIGHT TRIGGERED RELEASE OF NEAR INFRARED PHOTOSENSITIZERS AND CHEMOTHERAPY AGENTS FROM POLYACRLAMIDE BASED NANOPARTICLES” (Photolitec, LLC, priority 2020, published 2021).

Assay [1] concerns U87 Glioma xenografts. The assay can be described thus: In vivo PDT and PDT-SDT combination response. The note with it: PDT alone; SCID mice bearing U87 Glioma xenografts.
Assay [2] relates to U87 tumors. The assay can be described thus: Long-term tumor cure by Photobac-PDT. The class given is in vivo, SCID mice. The note with it: laser light at 787 nm; for CR: 60 days. Here is the method:
Analysis of anticancer efficacy of Photobac was injected in tumor-bearing mice and treated with the laser light at 787 nm. Tumor cure was monitored for 60 days post-laser treatment. […] Photobac is being developed for the treatment of glioblastoma by Photolitec, LLC (a spin-off of RPCI) has received an ORPHAN DRUG STATUS from FDA.
Long-term tumor cure by Photobac-PDT on treating nude mice (female) bearing U87 tumors (shoulder) at variable drug doses. The tumors were exposed with light (787 nm, 135 J/cm^2, 75 mW/cm^2) at 24 h post injection. Comparative long-term cure of Photobac-PDT treatment in both and female SCID mice bearing U87 tumors (shoulder) under similar treatment parameters (drug dose: 0.75 μmol/kg; light dose: 135 J/cm^2, 75 mW/cm^2.

For assay [3], the system named is Colon 26 tumors and U87 tumors. The assay can be described thus: Photobac-PDT vascular shutdown, CD31 staining of tumor sections. The class given is in vivo, BALB/C mice; nude mice. The note with it: 787 nm, 135 J/cm2, 75 mW/cm2 at 24 h post-injection; 0.25 μmol/kg (Colon 26) or 0.75 μmol/kg (U87).

The structures appear in SMILES notation.

For `CCCCCCOC(C)c1c(C)c2cc3nc(c4c5[nH]c(cc6nc(cc1[nH]2)C(C)=C6CC)c(C)c5C(=O)C4)[C@@H](CCC(=O)O)[C@@H]3C` (stereo partly drawn) [HPPH, 2-(1-Hexyloxyethyl)-2-devinyl pyropheophorbide-a], the complete response in assay [1] stood at 37%.

With `CCCCOC(C)C1=C(C)c2cc3nc(c4c5[nH]c(cc6[nH]c(cc1n2)[C@H](C)[C@H]6CC)c(C)c5C(=O)N(CCCC)C4=O)[C@@H](CCC(=O)OC)[C@@H]3C` (stereo partly drawn) [Photobac, bacteriopurpurinimide], in assay [2] (female SCID mice), the “mice tumor free up to 60 days” value was 4/5 and the CR was 80%. In assay [2] (male mice), the “mice tumor free up to 60 days” value is recorded as 4/7 and the CR came to 60%. In assay [3], the “vascular effect of PDT” value is “causes vascular shutdown”.
